Measured values: patent EP4653008A1, “TRADITIONAL CHINESE MEDICINE COMPOSITION HAVING EFFICACY IN TREATING COLDS AND USE THEREOF” (Shijiazhuang Yiling Pharmaceutical Co., Ltd., priority 2023, dated 2024)
Values after ≈ are worked out from the molar mass of the structure shown.

Key:
[1] = tested on: ICR mice; assay: ear-swelling in mice caused by xylene; format: in vivo; settings: 0.50g/kg
Procedure: Referring to the specification and literature documents, the dose of aspirin drug administered to mice was set at 0.50 g/kg, as shown in Table 25.
(§1) A disposable syringe was used to administer the drug at a dosing volume of 10 ml/kg. Animals in the model group were administered with a corresponding volume of the solvent. The administration was carried out for 5 days.
After receiving new experimental animals, they were numbered and subjected to an adaptive feeding for at least 5 days. The grouping was carried out as described previously. 0.5 h after the last administration, the animal was fixed, and the right ear was exposed. The xylene was applied to the middle area of the right ear of the mice by dropwise addition using a pipette, with each 15 µL of xylene applied to dorsal and ventral sides and spread evenly. The left ear was left untreated. After 40 min, the animal was sacrificed by cervical dislocation. Both ears were then cut along the base of the auricle. A punch (7 mm diameter) was used to obtain symmetrical ear tissues from both ears, which were weighed on a precision analytical balance. The weights were recorded, and the degree of swelling and the swelling inhibition rate were calculated. Swelling degree = weight of the right ear tissue - weight of the left ear tissue [formula] [formula]

[2] = tested on: SD rats; assay: fever in rats induced by intraperitoneal injection of LPS; format: in vivo; settings: 3h after LPS, 26.64 mg/kg
[3] = tested on: ICR mice; assay: writhing in mice caused by acetic acid; format: in vivo; settings: 5.00 mg/kg
Procedure: Referring to the previous studies in our laboratory and relevant literatures, the dose of indomethacin drug administered to mice was set at 5.00 mg/kg, as shown in Table 23.
as §1
After receiving new experimental animals, they were numbered, subjected to an adaptive feeding for 5 days and grouped as described above. All animals were fasted for more than 12 h before the last administration, and 1 h after the last administration, 0.7% acetic acid was injected into the abdominal cavity of mice at a dose of 10ml/kg to stimulate the visceral and parietal peritoneum, leading to a deep, widespread, and long-time pain. […] The latency period to the onset of writhing and the number of writhing incidents within 15 min were recorded as quantitative indicators of pain.

[4] = tested on: influenza B virus (IBV); assay: in vitro antiviral assay (CPE, CCK-8); format: cell-based; settings: MDCK host cells, n=4
[5] = tested on: influenza A virus (H3N2); assay: in vitro antiviral assay (CPE, CCK-8); format: cell-based; settings: MDCK host cells, n=4
[6] = tested on: MDCK; assay: in vitro cytotoxicity (CCK-8); format: cell-based, canine; settings: Canis lupus familiaris; MDCK cells; 72 h; n=3
Procedure: • (1) Test Grouping: The appropriate starting concentration of the pharmaceutical composition was selected for test grouping according to the references. All the pharmaceutical compositions were diluted with serum-free DMEM medium. For the cell control group, only serum-free DMEM medium was used. […] For the positive control drug group, oseltamivir acid as a positive drug was set up at concentrations of 1000, 500, 250, 125, 62.5, and 31.25 µM. […] Recombinant human interferon α2b gel as a positive drug was set up at final concentrations of 1000, 333.33, 111.11, […], 33.33, and 11.11 IU/mL. The blank control group contained only serum-free DMEM medium and no cells. Three replicate wells were set up for each concentration in each group. • (2) Cell Plating: Cells were prepared into a suspension single cells (1×10^4 cells/mL), seeded to a 96-well cell culture plate (100 µL/well), and incubated overnight in a 37°C, 5% CO2 incubator. • (3) Addition of Drug and Test: The culture medium was discarded and the cells were washed twice with 1×PBS. […] After cells were incubated in the incubator for 1-4 h, the OD450 nm value was read using a microplate reader. The inhibition rate of cells and the half maximal inhibitory concentration (IC50) of the tested drugs on cells were calculated. […]

[7] = tested on: H1HeLa; assay: cells; format: cell-based; settings: Homo sapiens, H1-HeLa, 72 h, n=3
[8] = tested on: Coxsackievirus B3 (CVB3); assay: pathological changes of gastrointestinal tract, coxsackievirus infection model of young rats; settings: animals with this lesion grade (n=10), 120.7 mg/kg
[9] = tested on: IL-1β; assay: IL-1β in tissues (ELISA), coxsackievirus infection model of young rats
[10] = tested on: TNF-α; assay: TNF-α in tissues (ELISA), coxsackievirus infection model of young rats
[11] = tested on: IL-10; assay: IL-10 in tissues (ELISA), coxsackievirus infection model of young rats
[12] = tested on: lymphocyte (CD4^+ and CD8^+); assay: lymphocytes in blood (flow cytometry), coxsackievirus infection model of young rats; settings: 120.7mg/kg; for CD4^+/CD8^+: ratio
[13] = tested on: Coxsackievirus B3 (CVB3); assay: viral load in gastrointestinal tissues, coxsackievirus infection model of young rats; format: in vivo, young SD rats
Procedure: Each group consisted of 50 animals.
Homogenization was carried out using a high-speed homogenizer to prepare a tissue suspension. The suspension was centrifuged at 14000 rpm for 10 min at 4°C and the resulting supernatant was collected. RNA was extracted using the RNA extraction solution, and the extracted RNA was reverse transcribed into c-DNA. The fluorescence intensity of c-DNA obtained by reverse transcription was measured by using absolute quantitative PCR, and the fluorescence intensity of c-DNA was used to reflect the load of coxsackievirus B3 in the tissues of the stomach, small intestine, and large intestine.

[14] = tested on: IFN-γ; assay: IFN-γ in tissues (ELISA), coxsackievirus infection model of young rats
[15] = tested on: respiratory syncytial virus (RSV); assay: in vitro antiviral assay (CPE, CCK-8); format: cell-based; settings: human respiratory syncytial virus, HEp-2 host cells, 100 TCID50, n=4
[16] = tested on: enterovirus (EV71); assay: in vitro antiviral assay (CPE, CCK-8); format: cell-based; settings: LLC-MK2 host cells, 100 TCID50, n=4
Procedure: • (1) Test Grouping: Concentrations were set up based on the comprehensive results of cytotoxicity assays and OD450nm, values, and literature reports on the antiviral effects of positive control drugs. The concentration without significant toxic effects on cells under microscopic observation was selected as the starting concentration for the in vitro antiviral test. […] All of them were diluted into 5 concentrations, with 4 replicate wells set up for each concentration. A virus titer of 100 TCID50 was used to infect the cells. The grouping was as follows: virus + drug group, in which the drug group included the test substance group and the positive control drug group; the virus control group (with virus and no drug), and the cell control group (with virus maintenance solution only). See Table 3 below for detail. • (2) Cell Plating: Cells were prepared into a single cell suspension (1×10^4 cells/mL), seeded into a 96-well cell culture plate at 100 µL per well, and incubated overnight in a 37°C, 5% CO2 incubator. • (3) Addition of Drug and Observation: The medium was discarded, and the cells were washed twice with 1×PBS. […] The OD450nm value of the cells was read using a microplate reader. The inhibition rates of virus by different concentrations of the test substance and their median effective concentration (EC50) against virus were calculated as follows. […]

[17] = tested on: LLC-MK2; assay: in vitro cytotoxicity (CCK-8); format: cell-based, monkey; settings: Primates; LLC-MK2 cells; 72 h; n=3
[18] = tested on: rotavirus (RV); assay: in vitro antiviral assay (CPE, CCK-8); format: cell-based; settings: Vero
[19] = tested on: rhinovirus (Rhv); assay: in vitro antiviral assay (CPE, CCK-8); format: cell-based; settings: Enterovirus, H1-HeLa
[20] = tested on: Coxsackievirus B3 (CVB3); assay: in vitro antiviral assay (CPE, CCK-8); format: cell-based; settings: Enterovirus B, LLC-MK2
[21] = tested on: HEp-2; assay: in vitro cytotoxicity (CCK-8); format: cell-based; settings: Homo sapiens; HEp-2 cells; 72 h; n=3
[22] = tested on: parainfluenza virus (PIV); assay: in vitro antiviral assay (CPE, CCK-8); format: cell-based; settings: LLC-MK2 host cells, 100 TCID50, n=4
[23] = tested on: Vero; assay: in vitro cytotoxicity (CCK-8); format: cell-based, African green monkey; settings: Chlorocebus sabaeus; Vero cells; 72 h; n=3
[24] = next day after last administration
[25] = next day after the last administration
[26] = 3 days after administration, 120.7 mg/kg
[27] = next day after last administration, 120.7mg/kg

## CC(=O)Oc1ccccc1C(=O)O [Aspirin, aspirin]
[1]
  Swelling degree: 5.53 ± 2.81 mg
  Swelling inhibition rate (%): 50.34%

## CC(C)Cc1ccc(C(C)C(=O)O)cc1 (centres unmarked) [Ibuprofen]
[2]
  ΔT (ΔT =Tx-T0) °C: 0.28 ± 0.48 °C

## COc1ccc2c(c1)c(CC(=O)O)c(C)n2C(=O)c1ccc(Cl)cc1 [Indomethacin, indomethacin]
[3]; onset of writhing
  Latency period: 736.83 ± 258.16 s
[3]; within 15 min
  Number of writhing incident: 2.17±4.53

## CCC(CC)O[C@@H]1C=C(C(=O)O)C[C@H](N)[C@H]1NC(C)=O [Oseltamivir acid, Oseltamivir Acid]
[4]
  EC50: 0.0806 µM
[5]
  EC50: 0.931 µM
[6]
  IC50: > 1000 µM
[7]
  IC50: 1 µM

## NC(=O)c1ncn([C@@H]2O[C@H](CO)[C@@H](O)[C@H]2O)n1 [Ribavirin granule, Ribavirin]
[8]; 3 days after administration
  Cecum and rectum +: 3
  Cecum and rectum + +: 0
  Cecum and rectum -: 7
  Duodenum and jejunum +: 0
  Duodenum and jejunum + +: 0
  Ileum and colon +: 2
  Ileum and colon + +: 3
  Ileum and colon -: 5
  Stomach +: 9
  Stomach + +: 1
  Stomach -: 0
[8]; [24]
  Cecum and rectum +: 5
  Cecum and rectum + +: 2
  Cecum and rectum -: 3
  Duodenum and jejunum +: 0
  Duodenum and jejunum + +: 0
  Ileum and colon +: 2
  Ileum and colon + +: 3
  Ileum and colon -: 5
  Stomach +: 5
  Stomach + +: 0
  Stomach -: 5
[9]; D4, 120.7mg/kg
  IL-1β Large intestine: 317 ± 18 pg/mg
  IL-1β Small intestine: 318 ± 23 pg/mg
  IL-1β Stomach: 291 ± 20 pg/mg
[9]; D8, 120.7 mg/kg
  IL-1β Large intestine: 320 ± 34 pg/mg
  IL-1β Small intestine: 340 ± 21 pg/mg
  IL-1β Stomach: 308 ± 24 pg/mg
[10]; D4, 120.7mg/kg
  TNF-α Large intestine: 2557 ± 100 pg/mg
  TNF-α Small intestine: 2806 ± 158 pg/mg
[10]; D8, 120.7 mg/kg
  TNF-α Large intestine: 2491 ± 151 pg/mg
  TNF-α Small intestine: 2698 ± 145 pg/mg
  TNF-α Stomach: 2731 ± 96 pg/mg
[11]; D4, 120.7mg/kg
  IL-10 Large intestine: 497 ± 28 pg/mg
  IL-10 Small intestine: 473 ± 23 pg/mg
  IL-10 Stomach: 509 ± 37 pg/mg
[11]; D8, 120.7 mg/kg
  IL-10 Large intestine: 496 ± 50 pg/mg
[12]; 3 days after administration
  % lymphocyte CD4^+: 33.31±8.66%
  % lymphocyte CD8^+: 20.52±5.91%
  CD4^+/CD8^+: 1.65±0.18
[12]; [25]
  % lymphocyte CD4^+: 22.69±4.04%
  % lymphocyte CD8^+: 11.40±2.18%
  CD4^+/CD8^+: 2.03±0.37
[13]; [26]
  viral load, Large intestine: 515.92±226.55 Copies/mg
  viral load, Small intestine: 947.76±811.44 Copies/mg
  viral load, Stomach: 49.19±11.47 Copies/mg
[13]; [27]
  viral load, Large intestine: 16346.45±20084.56 Copies/mg
  viral load, Small intestine: 308.03±198.76 Copies/mg
  viral load, Stomach: 104.75±74.10 Copies/mg
[14]; D4, 120.7mg/kg
  IFN-γ Large intestine: 18364 ± 1203 pg/mg
  IFN-γ Small intestine: 16295 ± 865 pg/mg
  IFN-γ Stomach: 18235 ± 816 pg/mg
[14]; D8, 120.7 mg/kg
  IFN-γ Large intestine: 19728 ± 926 pg/mg
  IFN-γ Small intestine: 17443 ± 1296 pg/mg
  IFN-γ Stomach: 16481 ± 1093 pg/mg

## NC(=O)c1ncn([C@@H]2O[C@H](CO)[C@@H](O)[C@H]2O)n1 [Ribavirin]
[15]
  EC50: > 10 mg/L
[16]
  EC50: 6.03 mg/L (≈ 24.7 µM)
[17]
  IC50: > 1000 mg/L
[18]
  EC50: 20.6 mg/L (≈ 84.5 µM)
[19]
  EC50: > 30 mg/L
[20]
  EC50: 102 mg/L (≈ 417 µM)
[21]
  IC50: > 1000 mg/L
[22]
  EC50: 20.9 mg/L (≈ 85.7 µM)
[23]
  IC50: > 1000 mg/L
[7]
  IC50: > 1000 mg/L
